Assay results published in PubChem BioAssay (NCI).
Several values for one entry are separate records, joined by “and”; a condition that tells them apart may be missing. Equal entries are not always repeated.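 Following 48 hours of exposure in 96-well plates, responses at five concentrations were used to interpolate endpoints linearly. GI50 = concentration required for 50% inhibition of growth. TGI marks complete inhibition of growth.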 Activity calls are given as the source filed them. Cut-off read from the data, not from the text of the source: active = GI50 below about 0.43 µM; inactive = the rest.

What was measured:
Assay in all cases: NCI anticancer screen, dose series, 48 h
HOP-18 NSCLC = test system: HOP-18 NSCLC
DMS 273 small cell lung = test system: DMS 273 small cell lung
LXFL 529 NSCLC = test system: LXFL 529 NSCLC
SNB-78 CNS = test system: SNB-78 CNS
DU-145 prostate = test system: DU-145 prostate
MDA-MB-231 breast = test system: MDA-MB-231 breast
DLD-1 colon = test system: DLD-1 colon
T-47D breast = test system: T-47D breast
NCI/ADR-RES ovarian = test system: NCI/ADR-RES ovarian

For `O=[N+]([O-])c1ccc2c(c1)[O][Sn][O]2`, which outcome (HOP-18 NSCLC) is on record?
Its outcome is “inactive”.

And the GI50 (DMS 273 small cell lung)?
Its GI50 is 18.8 µg/mL.

What about the TGI (DMS 273 small cell lung) of the same molecule?
Its TGI is > 150 µg/mL.

And the outcome (LXFL 529 NSCLC)?
Its outcome is “inactive”.

And the GI50 (SNB-78 CNS)?
Its GI50 is 124 µg/mL.

And the TGI (SNB-78 CNS)?
Its TGI is > 150 µg/mL.

What does the source list for `CC[C@@]1(O)C(=O)OCc2c1cc1n(c2=O)Cc2cc3cc(N)ccc3nc2-1`?
GI50 (DU-145 prostate): 0.0144 µM; GI50 (MDA-MB-231 breast): 0.199 µM and 0.345 µM; TGI (MDA-MB-231 breast): 3.11 µM; GI50 (DLD-1 colon): 0.0885 µM and 0.346 µM; TGI (DLD-1 colon): > 100 µM; TGI (HOP-18 NSCLC): > 100 µM; GI50 (DMS 273 small cell lung): 0.00263 µM; TGI (DMS 273 small cell lung): 0.129 µM and 0.179 µM; GI50 (T-47D breast): 0.0476 µM; GI50 (LXFL 529 NSCLC): 0.204 µM; TGI (LXFL 529 NSCLC): 3.15 µM; TGI (NCI/ADR-RES ovarian): 0.169 µM and 0.116 µM; GI50 (SNB-78 CNS): 0.0463 µM and 0.212 µM

What does the source list for `C1=CC=C2NCCOCCNC3=CC=CC=CC3=NCCOCCN=C2C=C1`?
TGI (DLD-1 colon): > 100 µM; TGI (HOP-18 NSCLC): > 100 µM; TGI (DMS 273 small cell lung): > 100 µM; TGI (LXFL 529 NSCLC): > 100 µM; TGI (SNB-78 CNS): > 100 µM

`CCOC(=O)C(=O)Nc1c(C(C)C)cccc1C(C)C` was tested. Which TGI (DLD-1 colon) did it give?
The TGI was > 100 µM.

What about the TGI (HOP-18 NSCLC) of the same molecule?
The TGI was > 100 µM.

And the TGI (DMS 273 small cell lung)?
Its TGI is > 100 µM.

And the TGI (LXFL 529 NSCLC)?
The TGI was > 100 µM.

What about the TGI (SNB-78 CNS) of the same molecule?
The TGI was > 100 µM.

How did the TGI (DLD-1 colon) turn out when `O=C(OC[C@H]1O[C@@H](OC(=O)c2cc(O)c(O)c(O)c2)[C@H](OC(=O)c2cc(O)c(O)c(O)c2)[C@@H](OC(=O)c2cc(O)c(O)c(O)c2)[C@@H]1OC(=O)c1cc(O)c(O)c(O)c1)c1cc(O)c(O)c(O)c1` was run?
The TGI was 22.5 µM.

And the TGI (HOP-18 NSCLC)?
Its TGI is > 100 µM.

What about the TGI (DMS 273 small cell lung) of the same molecule?
The TGI was 7.07 µM.

What about the TGI (LXFL 529 NSCLC) of the same molecule?
The TGI was > 100 µM.

And the TGI (SNB-78 CNS)?
Its TGI is 80.3 µM.

`Cc1nn(-c2ccccc2)c(-c2ccccc2[N+](=O)[O-])c1CC#N` was tested. Which TGI (DMS 273 small cell lung) did it give?
The TGI was > 100 µM.

What about the TGI (LXFL 529 NSCLC) of the same molecule?
Its TGI is > 100 µM.

What about the TGI (SNB-78 CNS) of the same molecule?
The TGI was > 100 µM.

How did the TGI (DLD-1 colon) turn out when `CCOC(=O)c1cc(/C=C/C(C)=C/C(=O)OC)n(C)c1C` was run?
Its TGI is > 100 µM.

What about the TGI (DMS 273 small cell lung) of the same molecule?
The TGI was > 100 µM.

What about the TGI (LXFL 529 NSCLC) of the same molecule?
The TGI was > 100 µM.

And the TGI (SNB-78 CNS)?
Its TGI is > 100 µM.

For `CN=C1SC(=Nc2ccc(N(C)C)cc2)N1C`, which TGI (DLD-1 colon) is on record?
The TGI was > 100 µM.

What about the TGI (HOP-18 NSCLC) of the same molecule?
Its TGI is > 100 µM.

What about the TGI (DMS 273 small cell lung) of the same molecule?
The TGI was > 100 µM.

What about the TGI (LXFL 529 NSCLC) of the same molecule?
The TGI was > 100 µM.

And the TGI (SNB-78 CNS)?
Its TGI is > 100 µM.

How did the TGI (DLD-1 colon) turn out when `CCOc1ccccc1NC(=O)CCc1nc(=S)[nH][nH]1` was run?
The TGI was > 100 µM.

And the TGI (HOP-18 NSCLC)?
Its TGI is > 100 µM.

What about the TGI (LXFL 529 NSCLC) of the same molecule?
The TGI was > 100 µM.

What about the TGI (SNB-78 CNS) of the same molecule?
Its TGI is > 100 µM.

For `COC(=O)c1c(-c2ccccc2)sc(-c2cccc3ccccc23)c1C(=O)OC`, which TGI (DLD-1 colon) is on record?
Its TGI is > 100 µM.

What about the TGI (HOP-18 NSCLC) of the same molecule?
Its TGI is > 100 µM.

And the TGI (DMS 273 small cell lung)?
Its TGI is > 100 µM.

And the TGI (LXFL 529 NSCLC)?
Its TGI is > 100 µM.

What about the TGI (SNB-78 CNS) of the same molecule?
Its TGI is > 100 µM.

With `O=C([CH-]C(=O)C(F)(F)F)c1ccccc1.O=C([CH-]C(=O)C(F)(F)F)c1ccccc1.O=C([CH-]C(=O)C(F)(F)F)c1ccccc1.O=C([CH-]C(=O)C(F)(F)F)c1ccccc1.[Eu+3].c1ccncc1` as the molecule, how does the GI50 (DLD-1 colon) read?
Its GI50 is 7.12 µM.

And the TGI (DLD-1 colon)?
Its TGI is > 100 µM.

What about the GI50 (DMS 273 small cell lung) of the same molecule?
The GI50 was 8.87 µM.

And the TGI (DMS 273 small cell lung)?
Its TGI is > 100 µM.

What about the GI50 (LXFL 529 NSCLC) of the same molecule?
Its GI50 is 4.2 µM.

What about the TGI (LXFL 529 NSCLC) of the same molecule?
Its TGI is > 100 µM.

What does the source list for `CCN(CC)c1ccc2c(c1)Nc1cc(=C(C#N)C#N)c3ccccc3c1=N2`?
TGI (DLD-1 colon): > 100 µM; TGI (HOP-18 NSCLC): > 100 µM; TGI (DMS 273 small cell lung): > 100 µM; TGI (LXFL 529 NSCLC): > 100 µM; TGI (SNB-78 CNS): > 100 µM

How did the TGI (DLD-1 colon) turn out when `C=C1C(=O)OC2/C=C(\C=O)CC/C=C(\C)C(O)C[C@@H]12` (stereo partly specified) was run?
Its TGI is 8.93 µM.

What about the TGI (HOP-18 NSCLC) of the same molecule?
Its TGI is 31.2 µM.

And the TGI (DMS 273 small cell lung)?
Its TGI is 15.7 µM.

What about the TGI (LXFL 529 NSCLC) of the same molecule?
The TGI was 13.6 µM.

What about the TGI (SNB-78 CNS) of the same molecule?
Its TGI is 18.8 µM.

Which results are given for `Cc1cc2c(=O)c3ccccc3[nH]c2c(C(=O)O)c1C`?
TGI (DLD-1 colon): > 100 µM; TGI (DMS 273 small cell lung): > 100 µM; TGI (LXFL 529 NSCLC): > 100 µM; TGI (SNB-78 CNS): > 100 µM

How did the TGI (HOP-18 NSCLC) turn out when `COc1ccc(/C=C2\C(=O)N(C(=O)Cc3ccccc3)N=C2C)cc1OC` was run?
Its TGI is > 100 µM.

And the TGI (DMS 273 small cell lung)?
The TGI was > 100 µM.

And the TGI (SNB-78 CNS)?
The TGI was > 100 µM.

With `CCOC(=O)CC1NC(=O)CS1` (stereo unspecified) as the molecule, how does the TGI (DLD-1 colon) read?
Its TGI is > 100 µM.

And the TGI (HOP-18 NSCLC)?
Its TGI is > 100 µM.

What about the TGI (DMS 273 small cell lung) of the same molecule?
Its TGI is > 100 µM.

What about the TGI (LXFL 529 NSCLC) of the same molecule?
Its TGI is > 100 µM.

And the TGI (SNB-78 CNS)?
The TGI was > 100 µM.

Which TGI (DLD-1 colon) does the source give for `O=c1[nH]c(=O)n(C2OC3COC2C3O)cc1F` (stereo unspecified) here?
The TGI was > 100 µM.

And the TGI (HOP-18 NSCLC)?
Its TGI is > 100 µM.

And the TGI (DMS 273 small cell lung)?
The TGI was > 100 µM.

What about the TGI (LXFL 529 NSCLC) of the same molecule?
Its TGI is > 100 µM.

What about the TGI (SNB-78 CNS) of the same molecule?
Its TGI is > 100 µM.

Which results are given for `Cc1c2cc[n+](C)cc2c(C)c2c1[nH]c1ccc(O)c(OCC(F)(F)F)c12`?
TGI (DLD-1 colon): 44.4 µM; TGI (DMS 273 small cell lung): 8.79 µM; TGI (LXFL 529 NSCLC): 8.16 µM; TGI (SNB-78 CNS): 4.96 µM

With `BrC1(Br)C2/C=C\CCCCC21` (stereo unspecified) as the molecule, how does the TGI (HOP-18 NSCLC) read?
Its TGI is > 100 µM.

What about the TGI (DMS 273 small cell lung) of the same molecule?
Its TGI is > 100 µM.

And the TGI (LXFL 529 NSCLC)?
Its TGI is > 100 µM.

And the TGI (SNB-78 CNS)?
Its TGI is > 100 µM.
